Laboratory results from patent publication US20190055279A1, “NOVEL POLYPEPTIDES WITH IMPROVED PROTEOLYTIC STABILITY, AND METHODS OF PREPARING AND USING SAME” (TUFTS UNIVERSITY, priority 2015, published 2019).
Where two headings read alike, the source gives them in different places.

Experiments:
FAP [1] = target: T1, FAP (Homo sapiens, UniProt Q12884)
T1 sequence (Q12884 1-760): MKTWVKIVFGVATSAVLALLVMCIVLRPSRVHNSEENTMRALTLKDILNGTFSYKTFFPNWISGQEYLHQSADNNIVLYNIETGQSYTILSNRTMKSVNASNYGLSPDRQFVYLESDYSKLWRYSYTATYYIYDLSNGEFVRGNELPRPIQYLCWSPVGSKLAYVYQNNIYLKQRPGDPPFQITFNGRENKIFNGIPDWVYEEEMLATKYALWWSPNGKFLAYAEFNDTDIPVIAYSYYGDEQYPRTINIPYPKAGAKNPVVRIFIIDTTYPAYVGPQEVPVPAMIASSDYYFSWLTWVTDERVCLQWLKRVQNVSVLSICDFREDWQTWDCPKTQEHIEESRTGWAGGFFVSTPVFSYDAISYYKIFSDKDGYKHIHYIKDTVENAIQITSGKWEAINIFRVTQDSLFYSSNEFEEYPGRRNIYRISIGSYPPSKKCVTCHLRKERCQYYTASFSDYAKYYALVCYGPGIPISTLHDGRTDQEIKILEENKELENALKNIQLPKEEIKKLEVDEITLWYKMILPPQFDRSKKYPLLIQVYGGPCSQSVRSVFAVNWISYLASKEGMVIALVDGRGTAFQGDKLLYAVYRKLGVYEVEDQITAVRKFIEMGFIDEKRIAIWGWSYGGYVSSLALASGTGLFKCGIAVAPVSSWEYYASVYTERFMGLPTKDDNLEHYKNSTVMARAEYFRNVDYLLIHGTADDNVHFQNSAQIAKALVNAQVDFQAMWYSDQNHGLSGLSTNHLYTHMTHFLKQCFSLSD

DPP2 [2] = target: T2, DPP2 (Homo sapiens, UniProt Q9UHL4)
[3] = cited from earlier work
SBS patients = details: after 52 weeks of treatment; cited from earlier work
DPP4 [4] = target: T3, DPP4 (Homo sapiens, UniProt P27487)
T3 sequence (P27487 whole entry, species assumed): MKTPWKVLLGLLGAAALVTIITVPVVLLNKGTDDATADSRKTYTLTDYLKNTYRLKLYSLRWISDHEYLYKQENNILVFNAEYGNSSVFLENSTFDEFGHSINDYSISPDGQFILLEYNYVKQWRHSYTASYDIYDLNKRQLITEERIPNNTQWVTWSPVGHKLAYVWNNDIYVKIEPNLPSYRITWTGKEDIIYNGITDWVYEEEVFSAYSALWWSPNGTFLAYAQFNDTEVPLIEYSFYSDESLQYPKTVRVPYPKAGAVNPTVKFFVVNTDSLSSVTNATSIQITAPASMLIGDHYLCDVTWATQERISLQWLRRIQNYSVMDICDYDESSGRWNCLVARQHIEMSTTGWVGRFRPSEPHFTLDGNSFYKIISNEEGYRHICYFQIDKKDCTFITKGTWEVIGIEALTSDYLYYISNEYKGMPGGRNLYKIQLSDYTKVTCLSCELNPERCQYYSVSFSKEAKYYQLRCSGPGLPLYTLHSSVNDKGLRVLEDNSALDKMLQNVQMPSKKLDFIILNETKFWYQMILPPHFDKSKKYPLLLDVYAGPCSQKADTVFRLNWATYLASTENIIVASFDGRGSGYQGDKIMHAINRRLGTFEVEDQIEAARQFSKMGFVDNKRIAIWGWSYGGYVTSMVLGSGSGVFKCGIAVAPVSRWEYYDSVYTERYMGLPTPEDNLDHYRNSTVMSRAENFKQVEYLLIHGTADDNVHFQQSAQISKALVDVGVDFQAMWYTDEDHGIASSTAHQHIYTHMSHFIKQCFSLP
Method: Peptides were incubated with vehicle or recombinant DPP4. Serial dilutions of GLP2-1 and GLP2-4 were then applied to HEK293 cells, which had been transfected with cDNA encoding human GLP-2R and a cAMP-responsive reporter gene.
Peptides were incubated with recombinant DPP4. Serial dilutions of GLP-2 and GLP2-4 were then applied to HEK293 cells, which had been transfected with cDNA encoding human GLP-2R and a cAMP-responsive reporter gene. […] N=4, mean+SEM.
DPP4 resistance (FIG. 13): Lipidated peptides are compared with the prototype, F-GLP2-palm. After an overnight incubation (16 hrs) in the presence vs. the absence of DPP4, receptor mediated function is assessed as shown elsewhere herein. As a DPP4 susceptible control, parallel experiments are done using GLP-2. […] Following overnight preincubation, serial dilutions of ligands were prepared and added to GLP-2R expressing cells for 4 hours. A luciferase reporter gene assay was used to monitor Gαs coupled second messenger signaling.

wild type mice = details: GLP-2 twice daily over ten days; GATTEX daily; cited from earlier work
DPP4 [5] = target: T3, DPP4; assay: Sensitivity to DPP4: overnight incubation with recombinant DPP4 or vehicle, then receptor agonist bioassay; details: overnight incubation with or without DPP4, readout at cognate receptor
Method: Plotting concentration versus the luciferase activity yielded quantitative parameters for combined binding (potency) and signaling (efficacy) in a single step. […] DPP4 treated peptides: 10 μl of 0.26 mM peptide were incubated with 2 μL DPP4 in buffer ±DMSO for 18 hrs. Control peptides: 10 μl of 0.26 mM peptide was added to buffer ±DMSO. The final DMSO concentration was the same for all peptides and all peptides were diluted to 0.26 mM concentrations for the DPP4 assay.
Compounds are incubated overnight at 37° C. in the presence of recombinant DPP4 or vehicle (TRIS buffer). The samples are then assessed in GLP-1R agonist assays.
Compounds were incubated overnight at 37° C. in the presence of recombinant DPP4 or vehicle (TRIS buffer, pH 8.0). The samples were then assessed in GLP1R agonist assays as described elsewhere herein.

FAP [6] = target: T1, FAP; assay: Stability assay with or without FAP, read out by receptor bioassay (FIG. 9A, FIG. 18); details: incubated with or without FAP
DPP2 [7] = target: T2, DPP2; assay: Stability assay with or without DPP2, read out by receptor bioassay (FIG. 9A); details: incubated with or without DPP2

CC[C@H](C)[C@H](NC(=O)[C@H](CO)NC(=O)[C@H](Cc1ccc(O)cc1)NC(=O)[C@H](CC(=O)O)NC(=O)[C@H](CO)NC(=O)[C@@H](NC(=O)[C@H](Cc1ccccc1)NC(=O)[C@@H](NC(=O)CNC(=O)[C@H](CCC(=O)O)NC(=O)[C@H](C)NC(=O)[C@@H](N)Cc1ccc(O)cc1)[C@@H](C)O)[C@@H](C)CC)C(=O)N[C@@H](C)C(=O)N[C@@H](CCSC)C(=O)N[C@@H](CC(=O)O)C(=O)N[C@@H](CCCCN)C(=O)N[C@H](C(=O)N[C@@H](Cc1c[nH]cn1)C(=O)N[C@@H](CCC(N)=O)C(=O)N[C@@H](CCC(N)=O)C(=O)N[C@@H](CC(=O)O)C(=O)N[C@@H](Cc1ccccc1)C(=O)N[C@H](C(=O)N[C@@H](CC(N)=O)C(=O)N[C@@H](Cc1c[nH]c2ccccc12)C(=O)N[C@@H](CC(C)C)C(=O)N[C@@H](CC(C)C)C(=O)N[C@@H](C)C(=O)N[C@@H](CCC(N)=O)C(=O)N[C@@H](CCCCN)C(=O)NCC(=O)N[C@@H](CCCCN)C(=O)N[C@@H](CCCCN)C(=O)N[C@@H](CC(N)=O)C(=O)N[C@@H](CC(=O)O)C(=O)N[C@@H](Cc1c[nH]c2ccccc12)C(=O)N[C@@H](CCCCN)C(=O)N[C@@H](Cc1c[nH]cn1)C(=O)N[C@@H](CC(N)=O)C(=O)N[C@H](C(=O)N[C@H](C(=O)N[C@@H](CCC(N)=O)C(=O)O)[C@@H](C)O)[C@@H](C)CC)C(C)C)[C@@H](C)CC [GIP, Gastric Inhibitory Polypeptide]
stability to FAP (in words) (FAP [1]): major potency losses | stability to DPP2 (in words) (DPP2 [2]): major potency losses

CC[C@H](C)[C@H](NC(=O)[C@H](Cc1ccccc1)NC(=O)[C@H](CC(=O)O)NC(=O)[C@H](CCCNC(=N)N)NC(=O)[C@H](C)NC(=O)[C@H](C)NC(=O)[C@H](CC(C)C)NC(=O)[C@H](CC(N)=O)NC(=O)[C@H](CC(=O)O)NC(=O)[C@H](CC(C)C)NC(=O)[C@@H](NC(=O)[C@@H](NC(=O)[C@H](CC(N)=O)NC(=O)[C@H](CCSC)NC(=O)[C@H](CCC(=O)O)NC(=O)[C@H](CC(=O)O)NC(=O)[C@H](CO)NC(=O)[C@H](Cc1ccccc1)NC(=O)[C@H](CO)NC(=O)CNC(=O)[C@H](CC(=O)O)NC(=O)CNC(=O)[C@@H](N)Cc1c[nH]cn1)[C@@H](C)O)[C@@H](C)CC)C(=O)N[C@@H](CC(N)=O)C(=O)N[C@@H](Cc1c[nH]c2ccccc12)C(=O)N[C@@H](CC(C)C)C(=O)N[C@H](C(=O)N[C@@H](CCC(N)=O)C(=O)N[C@H](C(=O)N[C@@H](CCCCN)C(=O)N[C@H](C(=O)N[C@H](C(=O)N[C@@H](CC(=O)O)C(=O)O)[C@@H](C)O)[C@@H](C)CC)[C@@H](C)O)[C@@H](C)CC [Gattex, teduglutide]
in vivo half-life [3]: ~3 h | SBS patients able to reduce their PN regimen by at least 1 day/week (SBS patients): 68% | patients who failed to reduce their PN regimen by even 1 day/week (SBS patients): 32% | treated patients entirely independent of PN (SBS patients): 4 of 52 | DPP4 degradation / resistance (in words) (DPP4 [4]): only partial DPP4 resistance | bowel weight (wild type mice): significant increase in both large and small bowel weights

CC[C@H](C)[C@H](NC(=O)[C@H](CO)NC(=O)[C@H](Cc1ccc(O)cc1)NC(=O)[C@H](CC(=O)O)NC(=O)[C@H](CO)NC(=O)[C@@H](NC(=O)[C@H](Cc1ccccc1)NC(=O)[C@@H](NC(=O)CNC(=O)[C@H](CCC(=O)O)NC(=O)[C@H](C)NC(=O)[C@H](Cc1ccc(O)cc1)NCC(F)(F)F)[C@@H](C)O)[C@@H](C)CC)C(=O)N[C@@H](C)C(=O)N[C@@H](CCSC)C(=O)N[C@@H](CC(=O)O)C(=O)N[C@@H](CCCCN)C(=O)N[C@H](C(=O)N[C@@H](Cc1c[nH]cn1)C(=O)N[C@@H](CCC(N)=O)C(=O)N[C@@H](CCC(N)=O)C(=O)N[C@@H](CC(=O)O)C(=O)N[C@@H](Cc1ccccc1)C(=O)N[C@H](C(=O)N[C@@H](CC(N)=O)C(=O)N[C@@H](Cc1c[nH]c2ccccc12)C(=O)N[C@@H](CC(C)C)C(=O)N[C@@H](CC(C)C)C(=O)N[C@@H](C)C(=O)N[C@@H](CCC(N)=O)C(=O)N[C@@H](CCCCN)C(=O)NCC(=O)N[C@@H](CCCCN)C(=O)N[C@@H](CCCCN)C(=O)N[C@@H](CC(N)=O)C(=O)N[C@@H](CC(=O)O)C(=O)N[C@@H](Cc1c[nH]c2ccccc12)C(=O)N[C@@H](CCCCN)C(=O)N[C@@H](Cc1c[nH]cn1)C(=O)N[C@@H](CC(N)=O)C(=O)N[C@H](C(=O)N[C@H](C(=O)N[C@@H](CCC(N)=O)C(=O)O)[C@@H](C)O)[C@@H](C)CC)C(C)C)[C@@H](C)CC [I-4]
DPP4 degradation / resistance (in words) (DPP4 [5]): resistant | DPP4 degradation / resistance (in words) (DPP4 [5]; listed as I4): stable | stability to FAP (in words) (FAP [6]): stable | stability to DPP2 (in words) (DPP2 [7]): stable
